Laboratory results as given in ChEMBL document CHEMBL1201862, “PubChem BioAssay data set” (2004).
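96-well plates; 48 h exposure; 5 concentrations. Endpoints by linear interpolation between flanking doses. Not reached: highest tested concentration assigned. GI50: concentration for 50% inhibition of growth.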 Activity calls are given as the source filed them. Cut-off read from the data, not from the text of the source: active = GI50 up to about 1.1 µM and inactive = higher.

Tests used:
Test in all cases: NCI-60 cell line screen, 48 h
786-0 = system: 786-0
COLO 205 = system: COLO 205
HCC 2998 = system: HCC 2998
HOP-92 = system: HOP-92
KM12 = system: KM12
M14 = system: M14
NCI-H226 = system: NCI-H226
NCI-H23 = system: NCI-H23
NCI-H522 = system: NCI-H522
OVCAR-4 = system: OVCAR-4
SF-295 = system: SF-295
SK-MEL-28 = system: SK-MEL-28
SW-620 = system: SW-620
RPMI-8226 = system: RPMI-8226
SR = system: SR
HL-60 = system: HL-60

Row | SMILES | GI50 (786-0) | GI50 (COLO 205) | GI50 (HCC 2998) | GI50 (HOP-92) | GI50 (KM12) | GI50 (M14) | GI50 (NCI-H226) | GI50 (NCI-H23) | GI50 (NCI-H522) | GI50 (OVCAR-4) | GI50 (SF-295) | GI50 (SK-MEL-28) | GI50 (SW-620) | GI50 (RPMI-8226) | GI50 (SR) | GI50 (HL-60)
1 | N#CC(C(=O)/C(=N/NC(=O)c1ccccc1O)C(C#N)c1ccc(Br)cc1)c1ccc(Br)cc1 (stereo not given) | 12.7 µM (inactive) | 16.5 µM (inactive) | 12.1 µM (inactive) | 16.7 µM (inactive) | 12.9 µM (inactive) | 14.3 µM (inactive) | 5.52 µM (inactive) | 4.74 µM (inactive) | 11.4 µM (inactive) | 15.6 µM (inactive) | 14.5 µM (inactive) | 13.8 µM (inactive) | 4.02 µM (inactive) | – | – | –
2 | COc1ccc(/C=C(/C(=O)O)c2cc(OC)c(OC)c(OC)c2)cc1 | 41.3 µM (inactive) | 33.3 µM (inactive) | > 100 µM (inactive) | > 100 µM (inactive) | 63 µM (inactive) | 24.2 µM (inactive) | 44.8 µM (inactive) | 27.2 µM (inactive) | 16.8 µM (inactive) | 41.4 µM (inactive) | – | 61.9 µM (inactive) | 61 µM (inactive) | 33.8 µM (inactive) | 43.3 µM (inactive) | –
3 | NC(=O)C(c1ccccc1)N1CCOCC1 (stereo not given) | > 100 µM (inactive) | > 100 µM (inactive) | – | > 100 µM (inactive) | > 100 µM (inactive) | > 100 µM (inactive) | > 100 µM (inactive) | > 100 µM (inactive) | > 100 µM (inactive) | > 100 µM (inactive) | > 100 µM (inactive) | > 100 µM (inactive) | > 100 µM (inactive) | > 100 µM (inactive) | > 100 µM (inactive) | > 100 µM (inactive)
4 | CCOC(=N)CC(=O)NC(C)c1ccccc1 (stereo not given) | > 100 µM (inactive) | > 100 µM (inactive) | 87.7 µM (inactive) | – | > 100 µM (inactive) | > 100 µM (inactive) | > 100 µM (inactive) | > 100 µM (inactive) | > 100 µM (inactive) | > 100 µM (inactive) | > 100 µM (inactive) | > 100 µM (inactive) | > 100 µM (inactive) | – | > 100 µM (inactive) | > 100 µM (inactive)
5 | CCc1ccccc1NC(=O)/C(=N/O)C(C)=O | > 100 µM (inactive) | > 100 µM (inactive) | > 100 µM (inactive) | – | > 100 µM (inactive) | > 100 µM (inactive) | 62.1 µM (inactive) | > 100 µM (inactive) | > 100 µM (inactive) | > 100 µM (inactive) | > 100 µM (inactive) | > 100 µM (inactive) | > 100 µM (inactive) | > 100 µM (inactive) | – | > 100 µM (inactive)
6 | CN(CN1C(=O)C2Cc3ccccc3CN2C1=O)c1ccccn1 (stereo not given) | > 100 µM (inactive) | > 100 µM (inactive) | > 100 µM (inactive) | – | > 100 µM (inactive) | > 100 µM (inactive) | > 100 µM (inactive) | > 100 µM (inactive) | > 100 µM (inactive) | > 100 µM (inactive) | > 100 µM (inactive) | > 100 µM (inactive) | > 100 µM (inactive) | > 100 µM (inactive) | > 100 µM (inactive) | > 100 µM (inactive)
7 | Cc1cccc(C)c1NC(=O)C1C(=O)N(c2c(C)cccc2C)C(=O)/C1=N\N (stereo not given) | > 100 µM (inactive) | > 100 µM (inactive) | > 100 µM (inactive) | > 100 µM (inactive) | – | > 100 µM (inactive) | > 100 µM (inactive) | > 100 µM (inactive) | > 100 µM (inactive) | > 100 µM (inactive) | > 100 µM (inactive) | > 100 µM (inactive) | > 100 µM (inactive) | > 100 µM (inactive) | > 100 µM (inactive) | 1.68 µM (inactive)
8 | Nc1c2ccccc2nc2c(C(=O)Nc3ccc(S(N)(=O)=O)cc3)cccc12 | > 100 µM (inactive) | > 100 µM (inactive) | > 100 µM (inactive) | – | 32.1 µM (inactive) | > 100 µM (inactive) | 84.3 µM (inactive) | > 100 µM (inactive) | 21.8 µM (inactive) | > 100 µM (inactive) | > 100 µM (inactive) | > 100 µM (inactive) | 66.2 µM (inactive) | 33.1 µM (inactive) | – | –
9 | COc1ccccc1NC(=O)CC(=O)N1N=C(c2ccccc2)C(/N=N/c2ccc(Cl)cc2)C1=O (stereo not given) | 13.9 µM (inactive) | 71.4 µM (inactive) | 45.6 µM (inactive) | – | 49.5 µM (inactive) | 59.8 µM (inactive) | 27.5 µM (inactive) | 34.4 µM (inactive) | 32.1 µM (inactive) | 25.2 µM (inactive) | 30.5 µM (inactive) | 37 µM (inactive) | 45.6 µM (inactive) | > 100 µM (inactive) | 55.1 µM (inactive) | 52 µM (inactive)
10 | CC1(C)N=C(c2ccccn2)C(c2ccccn2)=NC1(C)C | > 100 µM (inactive) | > 100 µM (inactive) | > 100 µM (inactive) | > 100 µM (inactive) | > 100 µM (inactive) | > 100 µM (inactive) | > 100 µM (inactive) | – | – | > 100 µM (inactive) | > 100 µM (inactive) | – | > 100 µM (inactive) | > 100 µM (inactive) | > 100 µM (inactive) | > 100 µM (inactive)
11 | CC(=O)OCC1OC(OC2C(COC(C)=O)OC(Sc3ccccc3C)C(OC(C)=O)C2OC(C)=O)C(OC(C)=O)C(OC(C)=O)C1OC(C)=O (stereo not given) | > 100 µM (inactive) | > 100 µM (inactive) | > 100 µM (inactive) | 55 µM (inactive) | > 100 µM (inactive) | > 100 µM (inactive) | > 100 µM (inactive) | > 100 µM (inactive) | > 100 µM (inactive) | > 100 µM (inactive) | > 100 µM (inactive) | > 100 µM (inactive) | > 100 µM (inactive) | > 100 µM (inactive) | > 100 µM (inactive) | –
12 | O=C(Cc1nc2ccccc2s1)C(=O)Nc1cccc(Cl)c1 | > 100 µM (inactive) | > 100 µM (inactive) | > 100 µM (inactive) | > 100 µM (inactive) | > 100 µM (inactive) | > 100 µM (inactive) | > 100 µM (inactive) | > 100 µM (inactive) | > 100 µM (inactive) | > 100 µM (inactive) | > 100 µM (inactive) | > 100 µM (inactive) | > 100 µM (inactive) | > 100 µM (inactive) | – | > 100 µM (inactive)
13 | CC1CCCP(=O)(c2ccccc2)CCC1 (stereo not given) | > 100 µM (inactive) | > 100 µM (inactive) | > 100 µM (inactive) | – | > 100 µM (inactive) | > 100 µM (inactive) | – | > 100 µM (inactive) | – | > 100 µM (inactive) | > 100 µM (inactive) | > 100 µM (inactive) | > 100 µM (inactive) | > 100 µM (inactive) | – | > 100 µM (inactive)
14 | N#CC1(Cc2ccccc2[N+](=O)[O-])c2ccccc2C2C(N1C(=O)c1ccccc1)C2(Cl)Cl (stereo not given) | > 100 µM (inactive) | > 100 µM (inactive) | 3.76 µM (inactive) | > 100 µM (inactive) | > 100 µM (inactive) | > 100 µM (inactive) | > 100 µM (inactive) | > 100 µM (inactive) | > 100 µM (inactive) | 13.2 µM (inactive) | > 100 µM (inactive) | > 100 µM (inactive) | > 100 µM (inactive) | – | – | –
15 | CCOC(=N)CC(=O)Nc1cccc(Cl)c1 | > 100 µM (inactive) | > 100 µM (inactive) | 67 µM (inactive) | – | > 100 µM (inactive) | > 100 µM (inactive) | > 100 µM (inactive) | 4.9 µM (inactive) | > 100 µM (inactive) | > 100 µM (inactive) | > 100 µM (inactive) | > 100 µM (inactive) | > 100 µM (inactive) | – | > 100 µM (inactive) | > 100 µM (inactive)
16 | CCOC(=O)/C(C(C)=O)=C1/N[C@H](C(=O)OCC)CS1 | > 100 µM (inactive) | > 100 µM (inactive) | > 100 µM (inactive) | – | > 100 µM (inactive) | > 100 µM (inactive) | > 100 µM (inactive) | > 100 µM (inactive) | > 100 µM (inactive) | > 100 µM (inactive) | > 100 µM (inactive) | > 100 µM (inactive) | > 100 µM (inactive) | > 100 µM (inactive) | > 100 µM (inactive) | > 100 µM (inactive)
17 | Cc1cccc(-c2nnc3s/c(=C\c4ccc5c(c4)OCO5)c(=O)n23)c1 | > 100 µM (inactive) | > 100 µM (inactive) | > 100 µM (inactive) | > 100 µM (inactive) | > 100 µM (inactive) | > 100 µM (inactive) | > 100 µM (inactive) | > 100 µM (inactive) | > 100 µM (inactive) | > 100 µM (inactive) | > 100 µM (inactive) | > 100 µM (inactive) | > 100 µM (inactive) | > 100 µM (inactive) | – | > 100 µM (inactive)
18 | N=C(c1ccccc1)N(c1ccccc1)c1ccccc1 | 28.1 µM (inactive) | 19.2 µM (inactive) | > 100 µM (inactive) | < 0.01 µM (active) | 25.2 µM (inactive) | > 100 µM (inactive) | 23.1 µM (inactive) | > 100 µM (inactive) | 73.3 µM (inactive) | 88.9 µM (inactive) | > 100 µM (inactive) | > 100 µM (inactive) | > 100 µM (inactive) | – | 30.7 µM (inactive) | 20.8 µM (inactive)
19 | CC1=C(C(=O)Nc2ccccc2C)C(c2ccccc2)C(C(=O)Nc2ccccc2C)=C(C)N1 | 68.9 µM (inactive) | 24.1 µM (inactive) | 32.4 µM (inactive) | 6.61 µM (inactive) | 26.6 µM (inactive) | 39.4 µM (inactive) | > 100 µM (inactive) | 23.7 µM (inactive) | 28.6 µM (inactive) | 28.5 µM (inactive) | 36.5 µM (inactive) | > 100 µM (inactive) | 30.5 µM (inactive) | – | 11.7 µM (inactive) | 15.2 µM (inactive)
